What was measured:
Format in all cases: in vivo
Settings in all cases: 1000 g/h, evaluated after 13 days, five point scale
Lolium perenne (LOLPE) [1] = assay: Post-emergence glasshouse herbicide test, Lolium perenne
Description: (§1) Seeds of a variety of test species are sown in standard soil in pots (Lolium perenne (LOLPE), Solanum nigrum (SOLNI), Amaranthus retoflexus (AMARE), Setaria faberi (SETFA), Echinochloa crus-galli (ECHCG), Ipomoea hederacea (IPOHE)). After cultivation for one day (pre-emergence) or after 8 days cultivation (post-emergence) under controlled conditions in a glasshouse (at 24/16° C., day/night; 14 hours light; 65% humidity), the plants are sprayed with an aqueous spray solution derived from the formulation of the technical active ingredient in acetone/water (50:50) solution containing 0.5% Tween 20 (polyoxyethelyene sorbitan monolaurate, CAS RN 9005-64-5). […] The test plants are then grown in a glasshouse under controlled conditions in a glasshouse (at 24/16° C., day/night; 14 hours light; 65% humidity) and watered twice daily. After 13 days for pre and post-emergence, the test is evaluated for the percentage damage caused to the plant. The biological activities are shown in the following table on a five point scale (5=80-100%; 4=60-79%; 3=40-59%; 2=20-39%; 1=0-19%).

Solanum nigrum (SOLNI) [2] = assay: Post-emergence glasshouse herbicide test, Solanum nigrum
Description: (§2) Seeds of a variety of test species are sown in standard soil in pots (Lolium perenne (LOLPE), Solanum nigrum (SOLNI), Amaranthus retoflexus (AMARE), Setaria faberi (SETFA), Echinochloa crus-galli (ECHCG), Ipomoea hederacea (IPOHE)). After cultivation for one day (pre-emergence) or after 8 days cultivation (post-emergence) under controlled conditions in a glasshouse (at 24/16° C., day/night; 14 hours light; 65% humidity), the plants are sprayed with an aqueous spray solution derived from the formulation of the technical active ingredient in acetone/water (50:50) solution containing 0.5% Tween 20 (polyoxyethelyene sorbitan monolaurate, CAS RN 9005-64-5). Compounds are applied at 1000 g/h. The test plants are then grown in a glasshouse under controlled conditions in a glasshouse (at 24/16° C., day/night; 14 hours light; 65% humidity) and watered twice daily. After 13 days for pre and post-emergence, the test is evaluated for the percentage damage caused to the plant. The biological activities are shown in the following table on a five point scale (5=80-100%; 4=60-79%; 3=40-59%; 2=20-39%; 1=0-19%).

[3] = tested on: Amaranthus retoflexus (AMARE); assay: Post-emergence glasshouse herbicide test, Amaranthus retoflexus
Description: as §1

Setaria faberi (SETFA) [4] = assay: Post-emergence glasshouse herbicide test, Setaria faberi
Description: as §1

[5] = tested on: Echinochloa crus-galli (ECHCG); assay: Post-emergence glasshouse herbicide test, Echinochloa crus-galli
Description: as §1

[6] = tested on: Ipomoea hederacea (IPOHE); assay: Post-emergence glasshouse herbicide test, Ipomoea hederacea
Description: as §1

Lolium perenne (LOLPE) [7] = assay: Pre-emergence glasshouse herbicide test, Lolium perenne
Description: as §1

Solanum nigrum (SOLNI) [8] = assay: Pre-emergence glasshouse herbicide test, Solanum nigrum
Description: as §2

[9] = tested on: Amaranthus retoflexus (AMARE); assay: Pre-emergence glasshouse herbicide test, Amaranthus retoflexus
Description: as §1

Setaria faberi (SETFA) [10] = assay: Pre-emergence glasshouse herbicide test, Setaria faberi
Description: as §1

[11] = tested on: Echinochloa crus-galli (ECHCG); assay: Pre-emergence glasshouse herbicide test, Echinochloa crus-galli
Description: as §1

[12] = tested on: Ipomoea hederacea (IPOHE); assay: Pre-emergence glasshouse herbicide test, Ipomoea hederacea
Description: as §1

Structure (SMILES)	percentage damage caused to the plant, POST Application LOLPE (Lolium perenne (LOLPE) [1])	percentage damage caused to the plant, POST Application SOLNI (Solanum nigrum (SOLNI) [2])	percentage damage caused to the plant, POST Application AMARE [3]	percentage damage caused to the plant, POST Application SETFA (Setaria faberi (SETFA) [4])	percentage damage caused to the plant, POST Application ECHCG [5]	percentage damage caused to the plant, POST Application IPOHE [6]	percentage damage caused to the plant, PRE Application LOLPE (Lolium perenne (LOLPE) [7])	percentage damage caused to the plant, PRE Application SOLNI (Solanum nigrum (SOLNI) [8])	percentage damage caused to the plant, PRE Application AMARE [9]	percentage damage caused to the plant, PRE Application SETFA (Setaria faberi (SETFA) [10])	percentage damage caused to the plant, PRE Application ECHCG [11]	percentage damage caused to the plant, PRE Application IPOHE [12]
CCCn1ncn2nc(C(=O)Nc3nnnn3C)c(=O)nc12 [Compound 1.007]	3 (3=40-59%)	5 (5=80-100%)	5 (5=80-100%)	5 (5=80-100%)	5 (5=80-100%)	5 (5=80-100%)	4 (4=60-79%)	5 (5=80-100%)	5 (5=80-100%)	5 (5=80-100%)	5 (5=80-100%)	4 (4=60-79%)
Cn1nnnc1NC(=O)c1nn2cnn(CCCC(F)(F)F)c2nc1=O [Compound 1.011]	3 (3=40-59%)	4 (4=60-79%)	5 (5=80-100%)	5 (5=80-100%)	5 (5=80-100%)	5 (5=80-100%)	2 (2=20-39%)	4 (4=60-79%)	5 (5=80-100%)	5 (5=80-100%)	4 (4=60-79%)	4 (4=60-79%)
CCn1nnnc1NC(=O)c1nn2cnn(-c3ccccc3)c2nc1=O [Compound 1.013]	5 (5=80-100%)	5 (5=80-100%)	5 (5=80-100%)	5 (5=80-100%)	5 (5=80-100%)	5 (5=80-100%)	5 (5=80-100%)	5 (5=80-100%)	5 (5=80-100%)	5 (5=80-100%)	5 (5=80-100%)	5 (5=80-100%)
CCCn1nnnc1NC(=O)c1nn2cnn(-c3ccccc3)c2nc1=O [Compound 1.014]	5 (5=80-100%)	5 (5=80-100%)	5 (5=80-100%)	5 (5=80-100%)	5 (5=80-100%)	5 (5=80-100%)	5 (5=80-100%)	5 (5=80-100%)	5 (5=80-100%)	5 (5=80-100%)	5 (5=80-100%)	5 (5=80-100%)
Cn1nnnc1NC(=O)c1nn2cnn(-c3cccc(Cl)c3)c2nc1=O [Compound 1.018]	4 (4=60-79%)	5 (5=80-100%)	5 (5=80-100%)	5 (5=80-100%)	5 (5=80-100%)	5 (5=80-100%)	3 (3=40-59%)	5 (5=80-100%)	4 (4=60-79%)	5 (5=80-100%)	5 (5=80-100%)	5 (5=80-100%)
Cn1nnnc1NC(=O)c1nn2cnn(-c3ccc(C(F)(F)F)cc3)c2nc1=O [Compound 1.022]	3 (3=40-59%)	5 (5=80-100%)	5 (5=80-100%)	5 (5=80-100%)	5 (5=80-100%)	4 (4=60-79%)	4 (4=60-79%)	5 (5=80-100%)	5 (5=80-100%)	5 (5=80-100%)	5 (5=80-100%)	4 (4=60-79%)
Cc1cccc(-n2ncn3nc(C(=O)Nc4nnnn4C)c(=O)nc23)c1 [Compound 1.026]	4 (4=60-79%)	5 (5=80-100%)	5 (5=80-100%)	5 (5=80-100%)	5 (5=80-100%)	5 (5=80-100%)	5 (5=80-100%)	5 (5=80-100%)	5 (5=80-100%)	5 (5=80-100%)	5 (5=80-100%)	4 (4=60-79%)
O=C(Nc1nnnn1-c1ccccc1)c1nn2cnn(-c3ccccc3)c2nc1=O [Compound 1.027]	2 (2=20-39%)	5 (5=80-100%)	4 (4=60-79%)	2 (2=20-39%)	1 (1=0-19%)	3 (3=40-59%)	1 (1=0-19%)	5 (5=80-100%)	5 (5=80-100%)	2 (2=20-39%)	1 (1=0-19%)	4 (4=60-79%)

Source: patent US10125138B2, “Triazolotriazinone derivatives having activity a s herbicides” (Syngenta Participations AG, priority 2015, dated 2018)
